System: Pseudomonas aeruginosa PAM1001
Assay: microbe, parasite or virus in culture
Format: cell-based
Protocol: The activity of efflux pump inhibitors (EPI) in combination with fluoroquinolones, such as levofloxacin, is assessed by the checkerboard assay (Antimicrobial Combinations. In Antibiotics in Laboratory Medicine, Ed. Victor Lorian, M. D., Fourth edition, 1996, pp 333-338) using broth microdilution method performed as recommended by the NCCLS (National Committee for Clinical Laboratory Standards (NCCLS). 1997. Methods for Dilution of Antimicrobial Susceptibility Tests for Bacteria That Grow Aerobically--Fourth Edition; Approved Standard. NCCLS Document M7-A4, Vol 17 No.2). The test organism used is Pseudomonas aeruginosa PAM1001.
In this assay, multiple dilutions of two drugs, namely the EPI and levofloxacin, are being tested, alone and in combination, at concentrations equal to, above and below their respective minimal inhibitory concentrations (MICs).
Stock solutions are further diluted, according to the needs of a particular assay, in Mueller Hinton Broth (MHB). Stock solution can be stored at -80° C. Quinolones are solubilized according to the instructions of the manufacturers, at a concentration of 1 mg/ml. They are then further diluted in MHB. Stock solution can be stored at -80° C.
The checkerboard assay is performed in microtiter plates. Levofloxacin is diluted in the x axis, each column containing a single concentration of levofloxacin. The EPI is diluted in the y axis, each row containing an equal concentration of EPI. The result of these manipulations is that each well of the microtiter plate contains a unique combination of concentrations of the two agents. Each EPI are tested independently.
The assay is performed in MHB with a final bacterial inoculum of 5×10^5 CFU/ml (from an early-log phase culture). Microtiter plates are incubated during 20 h at 35° C. and are read using a microtiterplate reader (Molecular Devices) at 650 nm as well as visual observation using a microtiterplate reading mirror.

D-Lysyl-β-N-(Cyclopropylmethyl)alanine Quinoline-2-amide Trifluoroacetate [Example 29]
Levofloxacin MIC Against P. aeruginosa PAM1001 in Presence of Efflux Pump Inhibitor (EPI), Minimum Inhibitory Concentration (Table 1, EPI Conc. 0 μg/ml): 4 µg/mL
Levofloxacin MIC Against P. aeruginosa PAM1001 in Presence of Efflux Pump Inhibitor (EPI), Minimum Inhibitory Concentration (Table 1, EPI Conc. 0.625 μg/ml): 4 µg/mL
Levofloxacin MIC Against P. aeruginosa PAM1001 in Presence of Efflux Pump Inhibitor (EPI), Minimum Inhibitory Concentration (Table 1, EPI Conc. 5 μg/ml): 1 µg/mL
Levofloxacin MIC Against P. aeruginosa PAM1001 in Presence of Efflux Pump Inhibitor (EPI), Minimum Inhibitory Concentration (Table 1, EPI Conc. 10 μg/ml): 0.125 µg/mL
Levofloxacin MIC Against P. aeruginosa PAM1001 in Presence of Efflux Pump Inhibitor (EPI), Minimum Inhibitory Concentration (Table 1, EPI Conc. 40 μg/ml): 0.125 µg/mL
Levofloxacin MIC Against P. aeruginosa PAM1001 in Presence of Efflux Pump Inhibitor (EPI), Minimum Inhibitory Concentration (Table 1, EPI Conc. μg/ml (number not given; column between 10 and 40 μg/ml)): 0.125 µg/mL
Levofloxacin MIC Against P. aeruginosa PAM1001 in Presence of Efflux Pump Inhibitor (EPI), Minimum Inhibitory Concentration (Table 2, EPI Conc. 0 μg/ml): 4 µg/mL
Levofloxacin MIC Against P. aeruginosa PAM1001 in Presence of Efflux Pump Inhibitor (EPI), Minimum Inhibitory Concentration (Table 2, EPI Conc. 0.625 μg/ml): 4 µg/mL
Levofloxacin MIC Against P. aeruginosa PAM1001 in Presence of Efflux Pump Inhibitor (EPI), Minimum Inhibitory Concentration (Table 2, EPI Conc. 5 μg/ml): 0.125 µg/mL
Levofloxacin MIC Against P. aeruginosa PAM1001 in Presence of Efflux Pump Inhibitor (EPI), Minimum Inhibitory Concentration (Table 2, EPI Conc. 10 μg/ml): 0.06 µg/mL
Levofloxacin MIC Against P. aeruginosa PAM1001 in Presence of Efflux Pump Inhibitor (EPI), Minimum Inhibitory Concentration (Table 2, EPI Conc. 40 μg/ml): 0.06 µg/mL
Levofloxacin MIC Against P. aeruginosa PAM1001 in Presence of Efflux Pump Inhibitor (EPI), Minimum Inhibitory Concentration (Table 2, EPI Conc. μg/ml (number not given; column between 10 and 40 μg/ml)): 0.06 µg/mL
Levofloxacin MIC Against P. aeruginosa PAM1001 in Presence of Efflux Pump Inhibitor (EPI), Minimum Inhibitory Concentration (Table 3, EPI Conc. 0 μg/ml): 4 µg/mL
Levofloxacin MIC Against P. aeruginosa PAM1001 in Presence of Efflux Pump Inhibitor (EPI), Minimum Inhibitory Concentration (Table 3, EPI Conc. 0.625 μg/ml): 4 µg/mL
Levofloxacin MIC Against P. aeruginosa PAM1001 in Presence of Efflux Pump Inhibitor (EPI), Minimum Inhibitory Concentration (Table 3, EPI Conc. 5 μg/ml): 2 µg/mL
Levofloxacin MIC Against P. aeruginosa PAM1001 in Presence of Efflux Pump Inhibitor (EPI), Minimum Inhibitory Concentration (Table 3, EPI Conc. 10 μg/ml): 0.25 µg/mL
Levofloxacin MIC Against P. aeruginosa PAM1001 in Presence of Efflux Pump Inhibitor (EPI), Minimum Inhibitory Concentration (Table 3, EPI Conc. 40 μg/ml): 0.008 µg/mL
Levofloxacin MIC Against P. aeruginosa PAM1001 in Presence of Efflux Pump Inhibitor (EPI), Minimum Inhibitory Concentration (Table 3, EPI Conc. […]): 4 µg/mL
Levofloxacin MIC Against P. aeruginosa PAM1001 in Presence of Efflux Pump Inhibitor (EPI), Minimum Inhibitory Concentration (Table 3, EPI Conc. μg/ml (number not given; column between 10 and 40 μg/ml)): 0.03 µg/mL
Levofloxacin MIC Against P. aeruginosa PAM1001 in Presence of Efflux Pump Inhibitor (EPI), Minimum Inhibitory Concentration (Table 4, EPI Conc. 0 μg/ml): 4 µg/mL
Levofloxacin MIC Against P. aeruginosa PAM1001 in Presence of Efflux Pump Inhibitor (EPI), Minimum Inhibitory Concentration (Table 4, EPI Conc. 0.625 μg/ml): 4 µg/mL
Levofloxacin MIC Against P. aeruginosa PAM1001 in Presence of Efflux Pump Inhibitor (EPI), Minimum Inhibitory Concentration (Table 4, EPI Conc. 5 μg/ml): 0.06 µg/mL
Levofloxacin MIC Against P. aeruginosa PAM1001 in Presence of Efflux Pump Inhibitor (EPI), Minimum Inhibitory Concentration (Table 4, EPI Conc. 10 μg/ml): 0.015 µg/mL
Levofloxacin MIC Against P. aeruginosa PAM1001 in Presence of Efflux Pump Inhibitor (EPI), Minimum Inhibitory Concentration (Table 4, EPI Conc. 40 μg/ml): 0.015 µg/mL
Levofloxacin MIC Against P. aeruginosa PAM1001 in Presence of Efflux Pump Inhibitor (EPI), Minimum Inhibitory Concentration (Table 4, EPI Conc. μg/ml (number not given; column between 10 and 40 μg/ml)): 0.015 µg/mL

From patent publication US6114310A, “Efflux pump inhibitors” (priority 1998, dated 2000)
